Measurements published in US12303592B2, “Formulations for parenteral delivery of compounds and uses thereof” (Wyeth, LLC, priority 2006, dated 2025).

Test: Stopper compatibility evaluation (Table 14), HPLC Method A; for RRT 0.38: key: BRL=below recordable limit; for RRT 0.49: key: BRL=below recordable limit; for RRT 0.67: key: BRL=below recordable limit; for RRT 0.79: key: BRL=below recordable limit; for RRT 0.89: key: BRL=below recordable limit; for RRT 1.17: key: BRL=below recordable limit; for RRT 1.55: key: BRL=below recordable limit; for RRT 1.89: key: BRL=below recordable limit; for RRT 1.96: key: BRL=below recordable limit; for RRT 2.01: key: BRL=below recordable limit; for RRT 2.26: key: BRL=below recordable limit
Assay type: physicochemical
Parameters: RRT 1.77 / Total / RRT 1.66: unit not given here
Text: Identical preparations prepared as described in Example 4 were stored in parallel in vials having either a 13 mm WPS S2-F451 4432/50 Gray B2-40 Westar RS stopper (West Pharmaceutical Services) or a 13 mm S2-F451 RS D 777-1 RB2 40 stopper (Daikyo Seiko, Ltd) under various conditions. Each of the stoppers has a FluoroTec® fluorocarbon film; the Westar 4432/50 stopper is chlorobutyl rubber, while the RB2-40 RS D 777-1 stopper is bromobutyl rubber. The presence of accumulation of degradant was assessed for each of the configurations (HPLC Method A).

[1] = Control at Room Temperature, 1 hours
[2] = Control at Room Temperature, 4 hours
[3] = RS-D 777-1 B2 40 from Daikyo Seiko Ltd. at 40° C., 1 hours
[4] = RS-D 777-1 B2 40 from Daikyo Seiko Ltd. at 40° C., 4 hours
[5] = RS-D 777-1 B2 40 from Daikyo Seiko Ltd. at Room Temperature, 1 hours
[6] = RS-D 777-1 B2 40 from Daikyo Seiko Ltd. at Room Temperature, 4 hours
[7] = Westar RS stopper (West Pharmaceutical Services) at 40° C., 1 hours
[8] = Westar RS stopper (West Pharmaceutical Services) at 40° C., 4 hours
[9] = Westar RS stopper (West Pharmaceutical Services) at Room Temperature, 1 hours
[10] = Westar RS stopper (West Pharmaceutical Services) at Room Temperature, 4 hours

SMILES: C[N+]1(CC2CC2)CC[C@]23c4c5ccc(O)c4O[C@H]2C(=O)CC[C@@]3(O)[C@H]1C5 (some centres unmarked) [MNTX, methylnaltrexone bromide]
- Initial (Control at 40° C., 1 hours): 20.3 mg
- RRT 0.38 (Control at 40° C., 1 hours): BRL
- RRT 0.49 (Control at 40° C., 1 hours): BRL
- RRT 0.67 (Control at 40° C., 1 hours): BRL
- RRT 0.79 (Control at 40° C., 1 hours): BRL
- RRT 0.89 (Control at 40° C., 1 hours): BRL
- RRT 1.17 (Control at 40° C., 1 hours): BRL
- RRT 1.55 (Control at 40° C., 1 hours): BRL
- RRT 1.66 (Control at 40° C., 1 hours): 0.12
- RRT 1.77 (Control at 40° C., 1 hours): BRL
- RRT 1.89 (Control at 40° C., 1 hours): BRL
- RRT 1.96 (Control at 40° C., 1 hours): BRL
- RRT 2.01 (Control at 40° C., 1 hours): BRL
- RRT 2.26 (Control at 40° C., 1 hours): BRL
- Total (Control at 40° C., 1 hours): 0.12
- Initial (Control at 40° C., 4 hours): 20.3 mg
- RRT 0.38 (Control at 40° C., 4 hours): BRL
- RRT 0.49 (Control at 40° C., 4 hours): BRL
- RRT 0.67 (Control at 40° C., 4 hours): BRL
- RRT 0.79 (Control at 40° C., 4 hours): BRL
- RRT 0.89 (Control at 40° C., 4 hours): BRL
- RRT 1.17 (Control at 40° C., 4 hours): BRL
- RRT 1.55 (Control at 40° C., 4 hours): BRL
- RRT 1.66 (Control at 40° C., 4 hours): 0.12
- RRT 1.77 (Control at 40° C., 4 hours): BRL
- RRT 1.89 (Control at 40° C., 4 hours): BRL
- RRT 1.96 (Control at 40° C., 4 hours): BRL
- RRT 2.01 (Control at 40° C., 4 hours): BRL
- RRT 2.26 (Control at 40° C., 4 hours): BRL
- Total (Control at 40° C., 4 hours): 0.12
- Initial [1]: 20.1 mg
- RRT 0.38 [1]: BRL
- RRT 0.49 [1]: BRL
- RRT 0.67 [1]: BRL
- RRT 0.79 [1]: BRL
- RRT 0.89 [1]: BRL
- RRT 1.17 [1]: BRL
- RRT 1.55 [1]: BRL
- RRT 1.66 [1]: 0.12
- RRT 1.77 [1]: BRL
- RRT 1.89 [1]: BRL
- RRT 1.96 [1]: BRL
- RRT 2.01 [1]: BRL
- RRT 2.26 [1]: BRL
- Total [1]: 0.12
- Initial [2]: 20.0 mg
- RRT 0.38 [2]: BRL
- RRT 0.49 [2]: BRL
- RRT 0.67 [2]: BRL
- RRT 0.79 [2]: BRL
- RRT 0.89 [2]: BRL
- RRT 1.17 [2]: BRL
- RRT 1.55 [2]: BRL
- RRT 1.66 [2]: 0.12
- RRT 1.77 [2]: BRL
- RRT 1.89 [2]: BRL
- RRT 1.96 [2]: BRL
- RRT 2.01 [2]: BRL
- RRT 2.26 [2]: BRL
- Total [2]: 0.12
- Initial (Initial): 20.2 mg
- RRT 0.38 (Initial): BRL
- RRT 0.49 (Initial): BRL
- RRT 0.67 (Initial): BRL
- RRT 0.79 (Initial): BRL
- RRT 0.89 (Initial): BRL
- RRT 1.17 (Initial): BRL
- RRT 1.55 (Initial): BRL
- RRT 1.66 (Initial): 0.12
- RRT 1.77 (Initial): BRL
- RRT 1.89 (Initial): BRL
- RRT 1.96 (Initial): BRL
- RRT 2.01 (Initial): BRL
- RRT 2.26 (Initial): BRL
- Total (Initial): 0.12
- Initial [3]: 20.1 mg
- RRT 0.38 [3]: BRL
- RRT 0.49 [3]: BRL
- RRT 0.67 [3]: BRL
- RRT 0.79 [3]: BRL
- RRT 0.89 [3]: BRL
- RRT 1.17 [3]: BRL
- RRT 1.55 [3]: BRL
- RRT 1.66 [3]: 0.12
- RRT 1.77 [3]: 0.05
- RRT 1.89 [3]: BRL
- RRT 1.96 [3]: BRL
- RRT 2.01 [3]: BRL
- RRT 2.26 [3]: BRL
- Total [3]: 0.17
- RRT 0.38 [4]: BRL
- RRT 0.49 [4]: BRL
- RRT 0.67 [4]: BRL
- RRT 0.79 [4]: BRL
- RRT 0.89 [4]: BRL
- RRT 1.17 [4]: BRL
- RRT 1.55 [4]: BRL
- RRT 1.66 [4]: 0.12
- RRT 1.77 [4]: 0.05
- RRT 1.89 [4]: BRL
- RRT 1.96 [4]: BRL
- RRT 2.01 [4]: BRL
- RRT 2.26 [4]: BRL
- Total [4]: 0.17
- Initial [5]: 20.3 mg
- RRT 0.38 [5]: BRL
- RRT 0.49 [5]: BRL
- RRT 0.67 [5]: BRL
- RRT 0.79 [5]: BRL
- RRT 0.89 [5]: BRL
- RRT 1.17 [5]: BRL
- RRT 1.55 [5]: BRL
- RRT 1.66 [5]: 0.12
- RRT 1.77 [5]: BRL
- RRT 1.89 [5]: BRL
- RRT 1.96 [5]: BRL
- RRT 2.01 [5]: BRL
- RRT 2.26 [5]: BRL
- Total [5]: 0.12
- Initial [6]: 20.2 mg
- RRT 0.38 [6]: BRL
- RRT 0.49 [6]: BRL
- RRT 0.67 [6]: BRL
- RRT 0.79 [6]: BRL
- RRT 0.89 [6]: BRL
- RRT 1.17 [6]: BRL
- RRT 1.55 [6]: BRL
- RRT 1.66 [6]: 0.12
- RRT 1.77 [6]: BRL
- RRT 1.89 [6]: BRL
- RRT 1.96 [6]: BRL
- RRT 2.01 [6]: BRL
- RRT 2.26 [6]: BRL
- Total [6]: 0.12
- Initial [7]: 20.1 mg
- RRT 0.38 [7]: BRL
- RRT 0.49 [7]: BRL
- RRT 0.67 [7]: BRL
- RRT 0.79 [7]: BRL
- RRT 0.89 [7]: BRL
- RRT 1.17 [7]: BRL
- RRT 1.55 [7]: BRL
- RRT 1.66 [7]: 0.06
- RRT 1.77 [7]: BRL
- RRT 1.89 [7]: BRL
- RRT 1.96 [7]: BRL
- RRT 2.01 [7]: BRL
- RRT 2.26 [7]: BRL
- Total [7]: 0.06
- Initial [8]: 20.2 mg
- RRT 0.38 [8]: BRL
- RRT 0.49 [8]: BRL
- RRT 0.67 [8]: BRL
- RRT 0.79 [8]: BRL
- RRT 0.89 [8]: BRL
- RRT 1.17 [8]: BRL
- RRT 1.55 [8]: BRL
- RRT 1.66 [8]: 0.06
- RRT 1.77 [8]: 0.05
- RRT 1.89 [8]: BRL
- RRT 1.96 [8]: BRL
- RRT 2.01 [8]: BRL
- RRT 2.26 [8]: BRL
- Total [8]: 0.06
- Initial [9]: 20.3 mg
- RRT 0.38 [9]: BRL
- RRT 0.49 [9]: BRL
- RRT 0.67 [9]: BRL
- RRT 0.79 [9]: BRL
- RRT 0.89 [9]: BRL
- RRT 1.17 [9]: BRL
- RRT 1.55 [9]: BRL
- RRT 1.66 [9]: 0.06
- RRT 1.77 [9]: BRL
- RRT 1.89 [9]: BRL
- RRT 1.96 [9]: BRL
- RRT 2.01 [9]: BRL
- RRT 2.26 [9]: BRL
- Total [9]: 0.06
- Initial [10]: 20.1 mg
- RRT 0.38 [10]: BRL
- RRT 0.49 [10]: BRL
- RRT 0.67 [10]: BRL
- RRT 0.79 [10]: BRL
- RRT 0.89 [10]: BRL
- RRT 1.17 [10]: BRL
- RRT 1.55 [10]: BRL
- RRT 1.66 [10]: 0.06
- RRT 1.77 [10]: BRL
- RRT 1.89 [10]: BRL
- RRT 1.96 [10]: BRL
- RRT 2.01 [10]: BRL
- RRT 2.26 [10]: BRL
- Total [10]: 0.06
